Results published in a compilation of properties of binary mixtures (doi:10.1016/j.molliq.2017.03.027).

Experiment: xn = mol fraction of the nth substance listed
Settings: 100 kPa

CCCC[n+]1ccn(C)c1.O=S(=O)([N-]S(=O)(=O)C(F)(F)F)C(F)(F)F + CO
Settings | speed of sound [m/s] | viscosity [mPa·s]
298.15 K, x2 = 0 | 1227.5 | 49.6
298.15 K, x2 = 0.2068 | 1218.3 | 34.37
298.15 K, x2 = 0.295 | 1213.6 | 28.65
298.15 K, x2 = 0.4004 | 1208.6 | 22.3
298.15 K, x2 = 0.4923 | 1202 | 17.55
298.15 K, x2 = 0.5956 | 1191.3 | 12.55
298.15 K, x2 = 0.7947 | 1159.2 | 5.11
298.15 K, x2 = 0.8978 | 1134.4 | 1.7
303.15 K, x2 = 0.2068 | 1206.7 | 28.28
303.15 K, x2 = 0.295 | 1202.3 | 23.6
303.15 K, x2 = 0.4923 | 1190.3 | 14.6
303.15 K, x2 = 0.5956 | 1180 | 10.52
303.15 K, x2 = 0.7056 | 1164.1 | 6.79
303.15 K, x2 = 0.7947 | 1146.7 | 4.38
303.15 K, x2 = 0.8978 | 1121.2 | 1.55
308.15 K, x2 = 0 | 1205.5 | 33.25
308.15 K, x2 = 0.0986 | 1201.6 | 28.87
308.15 K, x2 = 0.2068 | 1196 | 23.61
308.15 K, x2 = 0.295 | 1192.5 | 19.98
308.15 K, x2 = 0.4004 | 1186.7 | 15.74
308.15 K, x2 = 0.4923 | 1179.1 | 12.56
308.15 K, x2 = 0.5956 | 1169.2 | 9.2
308.15 K, x2 = 0.7056 | 1152.6 | 5.97
308.15 K, x2 = 0.7947 | 1134.5 | 3.97
308.15 K, x2 = 0.8978 | 1108.1 | 1.42
313.15 K, x2 = 0 | 1193.5 | 28
313.15 K, x2 = 0.0986 | 1190.8 | 24.53
313.15 K, x2 = 0.2068 | 1184.4 | 20.1
313.15 K, x2 = 0.295 | 1180.8 | 17.14
313.15 K, x2 = 0.4004 | 1175.5 | 13.55
313.15 K, x2 = 0.4923 | 1168 | 10.82
313.15 K, x2 = 0.5956 | 1158.3 | 8.03
313.15 K, x2 = 0.7056 | 1141.2 | 5.28
313.15 K, x2 = 0.7947 | 1122.6 | 3.54
313.15 K, x2 = 0.8978 | 1095.2 | 1.31
318.15 K, x2 = 0 | 1183.5 | 23.75
318.15 K, x2 = 0.2068 | 1173.6 | 17.22
318.15 K, x2 = 0.4004 | 1164.9 | 11.7
318.15 K, x2 = 0.5956 | 1147.7 | 7.01
318.15 K, x2 = 0.7947 | 1110.5 | 3.13
318.15 K, x2 = 0.8978 | 1082.2 | 1.21
323.15 K, x2 = 0 | 1171.3 | 20.39
323.15 K, x2 = 0.0986 | 1169.3 | 18.1
323.15 K, x2 = 0.2068 | 1162.4 | 14.96
323.15 K, x2 = 0.295 | 1160 | 12.89
323.15 K, x2 = 0.4004 | 1154.4 | 10.31
323.15 K, x2 = 0.4923 | 1146.6 | 8.33
323.15 K, x2 = 0.5956 | 1137.2 | 6.21
323.15 K, x2 = 0.7947 | 1098.7 | 2.81

CCCC[n+]1ccn(C)c1.O=S(=O)([N-]S(=O)(=O)C(F)(F)F)C(F)(F)F + CS(C)=O
x2 = 0
Settings | speed of sound [m/s] | viscosity [mPa·s]
298.15 K | 1227.5 | 49.6
308.15 K | 1205.5 | 33.25
313.15 K | 1193.5 | 28
323.15 K | 1171.3 | 20.39
